Values of other authors, collected in patent US12409106B2, “Medical material” (Senju USA, Inc., priority 2022, dated 2025).

Details: Soong T. Chiang et al., Pharmacotherapy 1996

topical 50% effective concentration EC50 on pain after oral surgery: 0.36 µg/mL
SMILES: Nc1c(CC(=O)O)cccc1C(=O)c1ccc(Br)cc1 [bromfenac]
